Literature values in patent US11406636B2, “Combined pharmaceutical composition” (Alepharma, Sociedad Anónima Promotora de inversión de …, priority 2017, dated 2022).
Where two headings read alike, the source gives them in different places.

Columns and labels:
CML formation = conditions: bovine serum with ribose, presence or absence of natural compounds
[1] = test system: streptozotocin-induced diabetic rat; conditions: for levels of methylglyoxal: increased by 68% in diabetic rats versus normal controls; for levels of glyoxal: increased by 115% in diabetic rats versus normal controls
diabetic rats = conditions: 200 mg/kg weight orally for 8 weeks
[2] = test system: bovine serum albumin, ribonuclease A and human hemoglobin; conditions: in vitro
[3] = not given; remark: listed apart in the source
[4] = physiological conditions, dose-dependent, forming adducts
[5] = within the first hour under physiological conditions

In the case of `C[C@@H]1O[C@@H](O[C@@H]2[C@@H](O)[C@H](OCCc3ccc(O)c(O)c3)O[C@H](CO)[C@H]2OC(=O)/C=C/c2ccc(O)c(O)c2)[C@H](O)[C@H](O)[C@H]1O` [acteoside], the “formation of CML” value (CML formation) is given as “increase the formation of CML”.

In the case of `C/C(=C(\CCOP(=O)(O)O)SC(=O)c1ccccc1)N(C=O)Cc1cnc(C)nc1N` [benfotiamine], the levels of methylglyoxal [1] is listed as “normalized” and the levels of glyoxal [1] is listed as “normalized”.

For `COc1cc(/C=C/C(=O)CC(=O)/C=C/c2ccc(O)c(OC)c2)ccc1O` [curcumin, Curcumin], the “accelerated accumulation of AGEs in the collagen, detected by ELISA” value (diabetic rats) is given as “prevented”, the “accumulation of lipid peroxidation products in serums” value (diabetic rats) is given as “significantly reduced” and the “collagen cross-linking in the tendon of the tail and skin” value (diabetic rats) is given as “extensively prevented”. The oxidative stress (diabetic rats) was “significantly reduced”.

For `O=C(O)c1cc(O)c(O)c(O)c1` [gallic acid], the “formation of CML” value (CML formation) is given as “increase the formation of CML”.

In the case of `CC1(C)[C@@H](O)CC[C@]2(C)[C@H]3C(=O)C=C4[C@@H]5C[C@@](C)(C(=O)O)CC[C@]5(C)CC[C@@]4(C)[C@]3(C)CC[C@@H]12` [glycylrhetinic acid], the “formation of CML” value (CML formation) is listed as “significantly inhibited the formation of CML”.

For `CC1(C)[C@@H](O[C@H]2O[C@H](C(=O)O)[C@@H](O)[C@H](O)[C@H]2O[C@@H]2O[C@H](C(=O)O)[C@@H](O)[C@H](O)[C@H]2O)CC[C@]2(C)[C@H]3C(=O)C=C4[C@@H]5C[C@@](C)(C(=O)O)CC[C@]5(C)CC[C@@]4(C)[C@]3(C)CC[C@@H]12` [glycyrrhizin], the “formation of CML” value (CML formation) is listed as “significantly inhibited the formation of CML”.

For `Cc1ncc(CO)c(CN)c1O` [pyridoxamine], the “inhibition of the formation of AGEs, compared with aminoguanidine” value (from here on “inhibition … compared with aminoguanidine”) [2] is given as “more effective than aminoguanidine”.

In the case of `Cc1ncc(CO)c(CO)c1O` [pyridoxine, Pyridoxine], the “inhibition … compared with aminoguanidine” value [2] is given as “more effective than aminoguanidine”.

In the case of `O=c1c(O)c(-c2ccc(O)c(O)c2)oc2cc(O)cc(O)c12` [quercetin, Quercetin], the glyoxal trapped [4] is listed as “up to 50%”, the glyoxal trapped [5] is listed as “up to 30%” and the methylglyoxal trapped [3, 4] is listed as at most 80%. The methylglyoxal trapped [3, 5] was at most 50% and the “formation of CML” value (CML formation) was “significantly inhibited the formation of CML”.

In the case of `Cc1ncc(C[n+]2csc(CCO)c2C)c(N)n1` [thiamine, Thiamine], the levels of methylglyoxal [1] is listed as “normalized”, the “levels of N-carboxymethyl-lysine (CML)” value ([1]; increased by 74% in diabetic rats) is listed as “normalized” and the levels of glyoxal [1] is listed as “normalized”. The “levels of N-carboxyethyl-lysine (CEL)” value ([1]; increased by 118% in diabetic rats) was “normalized” and the “inhibition … compared with aminoguanidine” value [2] was “more effective than aminoguanidine”.
